Molecules are shown by their SMILES.

The first test concerns glycolysis in HT1080 cells. Nature of the test: Glycolysis assay: oligomycin plus compound, cellular ATP by Cell Titer Glo. In kind it is cell-based. To be noted: 10 μM oligomycin, one hour, class symbols. The source says:
Therefore, an assay was developed that utilizes the combination of the glucose uptake inhibitors disclosed herein with oligomycin, a well-characterized inhibitor of ATP synthase. Because oligomycin inhibits ATP derived from oxidative phosphorylation, any remaining ATP production is derived from glycolysis. By reading out cellular ATP levels using the Promega Cell Titer Glo kit, the extent of glycolysis inhibition by the glucose uptake inhibitors disclosed herein can be assessed. […] Utilizing this experimental set-up, the IC50 of glycolysis inhibition for each compound can be determined.
Determination of Glucose Uptake/GLUT Activity (Glycolysis Assay):
HT1080 cells (as well as other cell types) were plated to confluency in 96-well plates. Cells were exposed to the combination of 10 μM Oligomycin (to block mitochondrial-derived ATP) and the glucose uptake inhibitors disclosed herein for one-hour, after which glycolytically-derived ATP was measured with the Cell Titer-Glo assay kit (Promega). Dose-response curves of the glucose uptake inhibitors disclosed herein were used to determine the IC50 for GLUT activity.
Turning to `O=C(Nc1cccc(-c2nc(Nc3ccc(-c4cn[nH]c4)cc3)c3sccc3n2)c1)c1cccnc1` [Example 43, N-(3-(4-((4-(1H-pyrazol-4-yl)phenyl)amino)thieno[3,2-d]pyrimidin-2-yl)phenyl)nicotinamide], the IC50 lay within 101 to 250 nM.

Still in this test, the particulars now being: Homo sapiens, HT-1080, 1 h, 10 μM oligomycin, one hour, class symbols.
In the case of `O=C(COc1cccc(-c2nc(Nc3ccc(-c4cn[nH]c4)cc3)c3ccsc3n2)c1)NC1CCCC1` [Example 28], the half-maximal inhibitory concentration (IC50) was 101 to 250 nM. Still for that read-out and setting: in the case of `Cn1cnc2c(Nc3ccc(-c4cn[nH]c4)cc3)nc(-c3cccc(OCC(=O)NC4CCC4)c3)nc21` [Example 29] it was 251 to 500 nM; in that of `Cn1cnc2c(Nc3ccc(-c4cn[nH]c4)cc3)nc(-c3cccc(OCC(=O)NC4CCCC4)c3)nc21` [Example 30], 101 to 250 nM; in that of `CC(C)NC(=O)COc1cc(F)cc(-c2nc3c(c(Nc4ccc(-c5cn[nH]c5)cc4)n2)COC3)c1` [Example 33], 501 to 1000 nM.

For the molecule `CC(C)NC(=O)COc1cc(F)cc(-c2nc(Nc3ccc(-c4cn[nH]c4)cc3)c3sccc3n2)c1` [Example 34], the IC50 was over 1000 nM. On the same count and under the same terms, as for `CC(C)NC(=O)COc1cc(F)cc(-c2nc(Nc3ccc(-c4cn[nH]c4)cc3)c3ccsc3n2)c1` [Example 35], the figure is over 1000 nM.

`CC(C)NC(=O)COc1cc(F)cc(-c2nc(Nc3ccc(-c4cn[nH]c4)cc3)c3ncn(C)c3n2)c1` [Example 36]: the IC50 was over 1000 nM.

As to `O=C(COc1cccc(-c2nc3c(c(Nc4ccc(-c5cn[nH]c5)cc4)n2)COC3)c1)N1CCOCC1` [Example 37, 2-(3-(4-((4-(1H-pyrazol-4-yl)phenyl)amino)-5,7-dihydrofuro[3,4-d]pyrimidin-2-yl)phenoxy)-1-morpholinoethan-1-one], the IC50 is over 1000 nM. Same read-out and setting: in the case of `O=C(COc1cccc(-c2nc(Nc3ccc(-c4cn[nH]c4)cc3)c3sccc3n2)c1)N1CCOCC1` [Example 38, 2-(3-(4-((4-(1H-pyrazol-4-yl)phenyl)amino)thieno[3,2-d]pyrimidin-2-yl)phenoxy)-1-morpholinoethan-1-one] it was 501 to 1000 nM; in that of `O=C(COc1cccc(-c2nc(Nc3ccc(-c4cn[nH]c4)cc3)c3ccsc3n2)c1)N1CCOCC1` [Example 39, 2-(3-(4-((4-(1H-pyrazol-4-yl)phenyl)amino)thieno[2,3-d]pyrimidin-2-yl)phenoxy)-1-morpholinoethan-1-one], over 1000 nM; in that of `CNC(=O)COc1cccc(-c2nc(Nc3ccc(-c4cn[nH]c4)cc3)c3sccc3n2)c1` [Example 40, 2-(3-(4-((4-(1H-pyrazol-4-yl)phenyl)amino)thieno[3,2-d]pyrimidin-2-yl)phenoxy)-N-methylacetamide], over 1000 nM. Same read-out and setting: in the case of `CCCNC(=O)COc1cccc(-c2nc(Nc3ccc(-c4cn[nH]c4)cc3)c3sccc3n2)c1` [Example 41, 2-(3-(4-((4-(1H-pyrazol-4-yl)phenyl)amino)thieno[3,2-d]pyrimidin-2-yl)phenoxy)-N-propylacetamide] it was over 1000 nM; in that of `CNC(=O)COc1cccc(-c2nc3c(c(Nc4ccc(-c5cn[nH]c5)cc4)n2)COC3)c1` [Example 42, 2-(3-(4-((4-(1H-pyrazol-4-yl)phenyl)amino)-5,7-dihydrofuro[3,4-d]pyrimidin-2-yl)phenoxy)-N-methylacetamide], over 1000 nM; in that of `CNC(=O)COc1cccc(-c2nc(Nc3ccc(-c4cn[nH]c4)cc3)c3ccsc3n2)c1` [Example 45, 2-(3-(4-((4-(1H-pyrazol-4-yl)phenyl)amino)thieno[2,3-d]pyrimidin-2-yl)phenoxy)-N-methylacetamide], over 1000 nM.

As to `CCCNC(=O)COc1cccc(-c2nc(Nc3ccc(-c4cn[nH]c4)cc3)c3ccsc3n2)c1` [Example 46, 2-(3-(4-((4-(1H-pyrazol-4-yl)phenyl)amino)thieno[2,3-d]pyrimidin-2-yl)phenoxy)-N-propylacetamide], the IC50 lay within 501 to 1000 nM. Still for that read-out and setting: as for `O=C(Nc1cccc(-c2nc3c(c(Nc4ccc(-c5cn[nH]c5)cc4)n2)COC3)c1)c1cccnc1` [Example 47, N-(3-(4-((4-(1H-pyrazol-4-yl)phenyl)amino)-5,7-dihydrofuro[3,4-d]pyrimidin-2-yl)phenyl)nicotinamide], the figure is 10 to 100 nM; as for `CC(C)NC(=O)COc1cccc(-c2nc(Nc3ccc(-c4cn[nH]c4)cc3)c3ncccc3n2)c1` [Example 48, 2-(3-(4-((4-(1H-pyrazol-4-yl)phenyl)amino)pyrido[3,2-d]pyrimidin-2-yl)phenoxy)-N-isopropylacetamide], over 1000 nM.

As for `O=C(COc1cccc(-c2nc(Nc3ccc(-c4cn[nH]c4)cc3)c3ncccc3n2)c1)NC1CCC1` [Example 49, 2-(3-(4-((4-(1H-pyrazol-4-yl)phenyl)amino)pyrido[3,2-d]pyrimidin-2-yl)phenoxy)-N-cyclobutylacetamide], the IC50 lay within 101 to 250 nM. Same read-out and setting: in the case of `CC(C(=O)Nc1cccc(-c2nc(Nc3ccc(-c4cn[nH]c4)cc3)c3ncccc3n2)c1)N1CCOCC1` (stereo not shown) [Example 50, N-(3-(4-((4-(1H-pyrazol-4-yl)phenyl)amino)pyrido[3,2-d]pyrimidin-2-yl)phenyl)-2-morpholinopropanamide] it was 501 to 1000 nM.

`O=C(COc1cccc(-c2nc(Nc3ccc(-c4cn[nH]c4)cc3)c3ncccc3n2)c1)NC1CCCC1` [Example 51, 2-(3-(4-((4-(1H-pyrazol-4-yl)phenyl)amino)pyrido[3,2-d]pyrimidin-2-yl)phenoxy)-N-cyclopentylacetamide]: the IC50 lay in the range of 10 to 100 nM.

With `CC(C)NC(=O)COc1cccc(-c2nc(Nc3ccc(-c4cn[nH]c4)cc3)c3cccnc3n2)c1` [Example 52, 2-(3-(4-((4-(1H-pyrazol-4-yl)phenyl)amino)pyrido[2,3-d]pyrimidin-2-yl)phenoxy)-N-isopropylacetamide], the IC50 lay in the range of 501 to 1000 nM. Same read-out and setting: as for `CC(C)CNC(=O)COc1cccc(-c2nc(Nc3ccc(-c4cn[nH]c4)cc3)c3ncccc3n2)c1` [Example 53, 2-(3-(4-((4-(1H-pyrazol-4-yl)phenyl)amino)pyrido[3,2-d]pyrimidin-2-yl)phenoxy)-N-isobutylacetamide], the figure is 101 to 250 nM. Still for that read-out and setting: in the case of `Cn1ncc2c(Nc3ccc(-c4cn[nH]c4)cc3)nc(-c3cccc(OCC(=O)NC4CCC4)c3)nc21` [Example 54, 2-(3-(4-((4-(1H-pyrazol-4-yl)phenyl)amino)-1-methyl-1H-pyrazolo[3,4-d]pyrimidin-6-yl)phenoxy)-N-cyclobutylacetamide] it was 251 to 500 nM; in that of `CC(C)NC(=O)COc1cccc(-c2nc(Nc3ccc(-c4cn[nH]c4)cc3)c3cnn(C)c3n2)c1` [Example 55, 2-(3-(4-((4-(1H-pyrazol-4-yl)phenyl)amino)-1-methyl-1H-pyrazolo[3,4-d]pyrimidin-6-yl)phenoxy)-N-isopropylacetamide], 251 to 500 nM; in that of `Cn1ncc2c(Nc3ccc(-c4cn[nH]c4)cc3)nc(-c3cccc(OCC(=O)NC4CCCC4)c3)nc21` [Example 56, 2-(3-(4-((4-(1H-pyrazol-4-yl)phenyl)amino)-1-methyl-1H-pyrazolo[3,4-d]pyrimidin-6-yl)phenoxy)-N-cyclopentylacetamide], 101 to 250 nM. On the same count and under the same terms, as for `CC(C)CNC(=O)COc1cccc(-c2nc(Nc3ccc(-c4cn[nH]c4)cc3)c3cnn(C)c3n2)c1` [Example 57, 2-(3-(4-((4-(1H-pyrazol-4-yl)phenyl)amino)-1-methyl-1H-pyrazolo[3,4-d]pyrimidin-6-yl)phenoxy)-N-isobutylacetamide], the figure is 101 to 250 nM; as for `CC(C)NC(=O)COc1cccc(-c2nc(Nc3ccc(-c4cn[nH]c4)cc3)c3c(cnn3C)n2)c1` [Example 58, 2-(3-(7-((4-(1H-pyrazol-4-yl)phenyl)amino)-1-methyl-1H-pyrazolo[4,3-d]pyrimidin-5-yl)phenoxy)-N-isopropylacetamide], over 1000 nM. For the molecule `Cn1ncc2nc(-c3cccc(OCC(=O)NC4CCC4)c3)nc(Nc3ccc(-c4cn[nH]c4)cc3)c21` [Example 59, 2-(3-(7-((4-(1H-pyrazol-4-yl)phenyl)amino)-1-methyl-1H-pyrazolo[4,3-d]pyrimidin-5-yl)phenoxy)-N-cyclobutylacetamide], the IC50 is over 1000 nM. The same measure, in the same setting: in the case of `Cn1ncc2nc(-c3cccc(OCC(=O)NC4CCCC4)c3)nc(Nc3ccc(-c4cn[nH]c4)cc3)c21` [Example 60, 2-(3-(7-((4-(1H-pyrazol-4-yl)phenyl)amino)-1-methyl-1H-pyrazolo[4,3-d]pyrimidin-5-yl)phenoxy)-N-cyclopentylacetamide] it was 501 to 1000 nM. The same measure, in the same setting: as for `CC(C)CNC(=O)COc1cccc(-c2nc(Nc3ccc(-c4cn[nH]c4)cc3)c3c(cnn3C)n2)c1` [Example 61, 2-(3-(7-((4-(1H-pyrazol-4-yl)phenyl)amino)-1-methyl-1H-pyrazolo[4,3-d]pyrimidin-5-yl)phenoxy)-N-isobutylacetamide], the figure is over 1000 nM; as for `CC(C)NC(=O)COc1cccc(-c2nc(Nc3ccc(-c4cn[nH]c4)cc3)c3ccncc3n2)c1` [Example 62, 2-(3-(4-((4-(1H-pyrazol-4-yl)phenyl)amino)pyrido[3,4-d]pyrimidin-2-yl)phenoxy)-N-isopropylacetamide], 10 to 100 nM; as for `O=C(COc1cccc(-c2nc(Nc3ccc(-c4cn[nH]c4)cc3)c3ccncc3n2)c1)NC1CCC1` [Example 63, 2-(3-(4-((4-(1H-pyrazol-4-yl)phenyl)amino)pyrido[3,4-d]pyrimidin-2-yl)phenoxy)-N-cyclobutylacetamide], 10 to 100 nM. Same read-out and setting: as for `O=C(COc1cccc(-c2nc(Nc3ccc(-c4cn[nH]c4)cc3)c3ccncc3n2)c1)NC1CCCC1` [Example 64, 2-(3-(4-((4-(1H-pyrazol-4-yl)phenyl)amino)pyrido[3,4-d]pyrimidin-2-yl)phenoxy)-N-cyclopentylacetamide], the figure is 10 to 100 nM.

As usually defined, the IC50 is the concentration at which inhibition is half-maximal.

Values taken from patent publication US10273248B2, “Glucose uptake inhibitors” (Kadmon Corporation LLC, priority 2015, dated 2019).
